# Results: article PMC7139549, “TLD1433 Photosensitizer Inhibits Conjunctival Melanoma Cells in Zebrafish Ectopic and Orthotopic Tumour Models” (Cancers, 2020)
# Legend:
# [1] = tested on: CRMM2 engrafted cells in zebrafish orthotopic model; assay: In situ TUNEL assay, CRMM2 orthotopic zebrafish model; type: in vivo, Zebrafish (Danio rerio); details: RO 2.3 mM
# Procedure: In situ TUNEL assay on fixed embryos was used to detect TLD1433 induced apoptosis in zebrafish CRMM1 and CRMM2 orthotopic tumour models at 4 dpi after light activation of 2.3 mM TLD1433, administrated by retro orbital injection. The DNA strand breaks in apoptotic tumour cells were stained with fluorescein and visualized as a green signal.
# Figure 10 TUNEL assay of in CRMM1 and CRMM2 orthotopic model after RO of TLD1433. Red fluorescent CRMM1 (A) and CRMM2 (B) cells were injected at 2dpf behind the ZF eye and divided into four groups for drug treatment. RO administration of vehicle control and TLD1433 was performed as described in Figure 9C,E. After dark or light exposure (21 mW/cm^2, 114 J.cm^−2, 520 nm) embryos were fixed and TUNEL staining was performed. Representative images of embryos are shown in this figure. (A,B) In TLD1433 light groups nuclear DNA fragmentation by nucleases is detected by co-localization of green (DNA fragments) and red signal of engrafted CM cells, depicted as yellow signal and marked by white arrows. In control dark, control light, TLD1433 dark, there are no positive green apoptotic tumour cells observed. […] Experiment was performed 3 times with a group size of 10 embryos.
# The zebrafish larvae were fixed overnight with 4% PFA at 4 °C. Embryos were washed in PBST for 5 min and dehydrated by a graded methanol series until reaching 100% methanol. […]
# [2] = tested on: CRMM2 cells injected into the Duct of Cuvier of zebrafish embryos; assay: Zebrafish ectopic CM tumour model, CRMM2; type: in vivo, Zebrafish (Danio rerio); details: for PI (Fluorescence Intensity) / PI (Tumour Area) / Relative Tumour Burden as Measured by Fluorescence Intensity / Tumour Area: CRMM2, Ectopic Model; for PI (Fluorescence Intensity) / PI (Tumour Area): 0 vs 114 J.cm^−2
# Procedure: The zebrafish ectopic conjunctival melanoma tumour model has been described previously. In this model, around 200 fluorescent CM cells are injected into the Duct of Cuvier at 2 dpf, and then disseminate through the blood circulation and grow in the head and tail. To establish the orthotopic tumour model, around 100 red, (td)Tomato fluorescent CRMM1 or CRMM2 cells were injected RO at 2 dpf into tg(Fli:GFP/Casper), endothelial reporter transgenic zebrafish with green fluorescent vasculature and examined by fluorescent microscopy at day 1 and 4 after engraftment (Figure 6A). Tumour expansion at the injection site was measured as fluorescence intensity and tumour area.
# For cancer cell injection, two days post-fertilization (dpf), dechorionated zebrafish embryos were anaesthetized with 0.003% tricaine (Sigma) and plated on a 10 cm Petri dish covered with 1.5% of solidified agarose. CRMM1 and CRMM2 cells were suspended in PBS containing 2% polyvinylpyrrolidone (PVP; Sigma-Aldrich) with a concentration of 50,000 cells/µL and loaded into borosilicate glass capillary needles (1 mm O.D. × 0.78 mm I.D.; Harvard Apparatus). In the ectopic model, 200 (td)Tomato fluorescent CM cells were injected into the Duct of Cuvier or at 2 dpf, which led to dissemination through the blood circulation and outgrowth in the head and tail. In orthotopic tumour model, 100 (td)Tomato fluorescent CRMM1 or CRMM2 cells were injected RO in 2 dpf embryos using a Pneumatic Picopump and a manipulator (WPI). After injection, the embryos were incubated in a 34 °C incubator. Images were acquired at 1-, 2- and 4-days post injection (dpi) with a Leica M165 FC stereo fluorescence microscope. Tumor growth was quantified by calculating the total fluorescence intensity and area with the ZF4 pixel counting program (Leiden). Each experiment was performed at least 3 times with a group size of >30 embryos.
# Fluorescent CRMM1 and CRMM2 cells were injected at 2 dpf into the Duct of Cuvier (ectopic model) and behind the eye (orthotopic model) and TLD1433 was delivered by WA, IV and RO administration with or without a light treatment as described in 4.8. For the WA administration, the 4.6 nM TLD1433 solution was added to the tumour cells injected zebrafish at 2.5, 3.5, 4.5, 5.5 dpf and maintained for 12 h. At 3, 4, 5, 6 dpf, the fish water was refreshed, and after 1 h, embryos were exposed to green light for 90 min (21 mW/cm^2, 114 J/cm^2, 520 nm). For the IV and RO administration, 1 nL of 2.3 mM TLD1433 solution was injected via the dorsal vein or the RO site at 3, 4, 5, 6 dpf. After 1 h interval, the embryos were exposed to green light for 90 min (21 mW/cm^2, 114 J/cm^2, 520 nm). After treatment, the embryos images were acquired with a Leica M165 FC stereo fluorescence microscope. Tumor growth was quantified by calculating the total fluorescence intensity and area with the ZF4 pixel counting program (Leiden). Each experiment was performed at least 3 times with a group size of >30 embryos.
# [3] = Intravenous (1 nL of 2.3 mM), Light Dose 0 J.cm^−2, vs control dark group (100%)
# [4] = Intravenous (1 nL of 2.3 mM), Light Dose 114 J.cm^−2, vs control dark group (100%)
# [5] = Water (4.6 nM), Light dose 0 J.cm^−2, vs control dark group (100%)
# [6] = Water (4.6 nM), Light dose 114 J.cm^−2, vs control dark group (100%)
# [7] = CRMM2, ectopic model, IV 2.3 mM, light 114 J.cm^−2
# [8] = CRMM2, ectopic model, RO 2.3 mM, green light 114 J.cm^−2
smiles,measurement,setting,value
Cc1ccnc(-c2cc(C)ccn2)c1.Cc1ccnc(-c2cc(C)ccn2)c1.[Cl-].[Cl-].[Ru+2].c1csc(-c2ccc(-c3ccc(-c4nc5c6cccnc6c6ncccc6c5[nH]4)s3)s2)c1 [TLD1433],TUNEL apoptosis of engrafted cells (in words),"[1]; dark, 4 dpi",no positive green signal detected
same,TUNEL apoptosis of engrafted cells (in words),"[1]; light 114 J.cm^−2, 4 dpi",induced CRMM1 and CRMM2 cell apoptosis
same,PI (Fluorescence Intensity),[2]; Intravenous (1 nL of 2.3 mM),1.4
same,PI (Tumour Area),[2]; Intravenous (1 nL of 2.3 mM),2.0
same,Relative Tumour Burden as Measured by Fluorescence Intensity,[2]; [3],97%
same,Tumour Area,[2]; [3],99%
same,Relative Tumour Burden as Measured by Fluorescence Intensity,[2]; [4],69%
same,Tumour Area,[2]; [4],50%
same,PI (Tumour Area),[2]; Retro orbital (1 nL of 2.3 mM),2.0
same,Tumour Area,"[2]; Retro orbital (1 nL of 2.3 mM), Light dose 0 J.cm^−2, vs control dark group (100%)",94%
same,Tumour Area,"[2]; Retro orbital (1 nL of 2.3 mM), Light dose 114 J.cm^−2, vs control dark group (100%)",48%
same,PI (Fluorescence Intensity),[2]; Retro-orbital (1 nL of 2.3 mM),1.6
same,Relative Tumour Burden as Measured by Fluorescence Intensity,"[2]; Retro-orbital (1 nL of 2.3 mM), Light Dose 0 J.cm^−2, vs control dark group (100%)",93%
same,Relative Tumour Burden as Measured by Fluorescence Intensity,"[2]; Retro-orbital (1 nL of 2.3 mM), Light Dose 114 J.cm^−2, vs control dark group (100%)",60%
same,PI (Fluorescence Intensity),[2]; Water (4.6 nM),0.93
same,PI (Tumour Area),[2]; Water (4.6 nM),0.90
same,Relative Tumour Burden as Measured by Fluorescence Intensity,[2]; [5],90%
same,Tumour Area,[2]; [5],92%
same,Relative Tumour Burden as Measured by Fluorescence Intensity,[2]; [6],96%
same,Tumour Area,[2]; [6],102%
same,inhibition of tumour area,[2]; [7],50%
same,inhibition of tumour fluorescence intensity,[2]; [7],31%
same,diminished fluorescence intensity,[2]; [8],40%
same,diminished tumour area,[2]; [8],52%
same,effect on tumour burden (in words),"[2]; CRMM2, ectopic model, WA at the MTD (4.6 nM), light 114 J.cm^−2",did not inhibit tumour burden
